Source: patent US7435837B2, “Dihydrobenzofuranyl alkanamine derivatives and methods for using same” (Wyeth, priority 2003, dated 2008)
Like-named read-outs stand apart in the source and are kept apart here.

Experiments:
[1] = molecular target: T1, human 5-hydroxytryptamine-2C (h5-HT2C) receptor (Homo sapiens, UniProt P28335); assay: [125I]DOI binding to membranes of CHO cells expressing the human 5-HT2C receptor; details: [125I]DOI radioligand, CHO cell membranes, room temperature 60 min; read-out: 5-HT2C Affinity Ki
T1 construct: expressed in transfected cells; host or cells: CHO (Chinese Hamster Ovary) cells; membranes
T1 sequence (P28335 33-458): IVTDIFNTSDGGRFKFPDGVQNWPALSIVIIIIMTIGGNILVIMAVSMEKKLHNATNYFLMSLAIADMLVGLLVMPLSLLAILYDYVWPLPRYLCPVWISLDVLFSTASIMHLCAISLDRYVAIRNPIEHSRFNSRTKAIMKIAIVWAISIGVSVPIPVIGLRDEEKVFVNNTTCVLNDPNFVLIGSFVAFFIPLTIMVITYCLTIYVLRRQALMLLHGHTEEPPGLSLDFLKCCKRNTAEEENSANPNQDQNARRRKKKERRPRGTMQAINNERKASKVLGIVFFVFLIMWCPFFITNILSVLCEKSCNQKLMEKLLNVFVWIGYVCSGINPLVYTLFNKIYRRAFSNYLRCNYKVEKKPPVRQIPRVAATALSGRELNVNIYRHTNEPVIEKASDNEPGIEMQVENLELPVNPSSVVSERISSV

human 5-HT2C receptor = molecular target: T2, human 5-HT2C receptor (Homo sapiens, UniProt P28335); assay: 5-HT2C receptor-stimulated calcium mobilization (FLIPR) in CHO cells; assay type: cell-based; details: for Emax: CHO; for EC50: calcium mobilization, CHO cells stably expressing human 5-HT2C, read-out: 5-HT2C Function EC50;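 as to all read-outs here: Fluo-3-AM fluorescence read on FLIPR every 1 s, agonist added after 10 baseline reads, response taken as peak minus lowest raw fluorescence count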
T2 sequence (P28335 33-458): T1 sequence (P28335 33-458)

[2] = percentage of the response observed with a maximally effective concentration of 5-HT, read-out: 5-HT2C Function Emax (%)
[3] = percentage of the response observed with a maximally effective concentration of 5-HT

Row | SMILES | Ki [1] [nM] | Emax (human 5-HT2C receptor; [2]) [%] | EC50 (human 5-HT2C receptor) [nM] | 5-HT2C Function Emax (%) (human 5-HT2C receptor; [3]) | Emax (human 5-HT2C receptor; read-out: 5-HT2C Function Emax (%), percentage of the response observed with a maximally effective concentration of 5-HT) [%]
1 | NCC1Cc2c(F)c(F)cc(-c3ccccc3)c2O1 (racemic) [Example 109, (±)-(4,5-difluoro-7-phenyl-2,3-dihydro-1-benzofuran-2-yl)methylamine] | 25 | 40 | 3220 | – | –
2 | NCC1Cc2cccc(-c3cccc(F)c3)c2O1 (single isomer, unassigned; (-)) [Example 132, (−)-1-[7-(3-fluorophenyl)-2,3-dihydro-1-benzofuran-2-yl]methanamine] | 20 | – | 1480 | 50 | –
3 | NCC1Cc2cc(Cl)cc(-c3ccc(F)cc3F)c2O1 (racemic) [Example 250, (±)-{[5-chloro-7-(2,4-difluorophenyl)-2,3-dihydro-1-benzofuran-2-yl]methyl}amine] | 2.5 | 90 | 72 | – | –
4 | CNCC1Cc2cc(C)cc(-c3ccc(Cl)cc3Cl)c2O1 (racemic) [Example 485, (±)-{[7-(2,4-dichlorophenyl)-5-methyl-2,3-dihydro-1-benzofuran-2-yl]methyl}methylamine] | 3 | 90 | 32 | – | –
5 | NCC1Cc2cc(Cl)cc(-c3cccnc3)c2O1 (racemic) [Example 266, (±)-{[(5-chloro-7-pyridin-3-yl-2,3-dihydro-1-benzofuran-2-yl)methyl]amine] | 4.9 | 90 | 3 | – | –
6 | CNCC1Cc2cc(F)cc(-c3ccc(Cl)cc3Cl)c2O1 (racemic) [Example 445, (±)-[7-(2,4-dichlorophenyl)-5-fluoro-2,3-dihydro-1-benzofuran-2-yl]methyl}methylamine] | 0.48 | – | 1 | – | 90
7 | CNCC1Cc2cccc(-c3c(Cl)cccc3Cl)c2O1 (racemic) [Example 433, (±)-[(N-methyl-1-[7-(2,6-dichlorophenyl)-2,3-dihydro-1-benzofuran-2-yl]methanamine] | 3.5 | 100 | 1 | – | –
8 | CNCC1Cc2cc(Cl)cc(-c3cccc(F)c3F)c2O1 (racemic) [Example 463, (±)-{[5-chloro-7-(2,3-difluorophenyl)-2,3-dihydro-1-benzofuran-2-yl]methyl}methylamine] | 21 | 80 | 89 | – | –
9 | CNCC1Cc2cc(OC)cc(-c3ccccc3F)c2O1 (racemic) [Example 491, (±)-{[7-(2-fluorophenyl)-5-methoxy-2,3-dihydro-1-benzofuran-2-yl]methyl}methylamine] | 22 | 80 | 200 | – | –
10 | NCC1Cc2cc(F)cc(-c3ccc(F)cc3)c2O1 (racemic) [Example 199, (±)-{[5-fluoro-7-(4-fluorophenyl)-2,3-dihydro-1-benzofuran-2-yl]methyl}amine] | 19 | 80 | 416 | – | –
11 | NCC1Cc2cc(C(F)(F)F)cc(-c3ccsc3)c2O1 (racemic) [Example 342, (±)-{[7-thien-3-yl-5-(trifluoromethyl)-2,3-dihydro-1-benzofuran-2-yl]methyl}amine] | 28 | 80 | 590 | – | –
12 | NCC1Cc2cccc(Cc3ccccc3)c2O1 (single isomer, unassigned; (+)) [Example 16, (+)-1-(7-benzyl-2,3-dihydro-1-benzofuran-2-yl)methanamine] | 274 | 65 | 451 | – | –
13 | CC(C)(C)c1cccc2c1OC(CN)C2 (single isomer, unassigned; (+)) [Example 26, (+)-1-(7-tert-butyl-2,3-dihydro-1-benzofuran-2-yl)methanamine] | 71 | – | 79 | 100 | –
14 | CNCC1Cc2cc(F)cc(-c3ccccc3C)c2O1 (single isomer, unassigned; (-)) [Example 441, (−)-{[5-fluoro-7-(2-methylphenyl)-2,3-dihydro-1-benzofuran-2-yl]methyl}methylamine] | 10 | 70 | 531 | – | –

Further molecules by falling Ki [1], results first:

Row | Ki [1] [nM] | Emax (human 5-HT2C receptor; [2]) [%] | EC50 (human 5-HT2C receptor) [nM] | 5-HT2C Function Emax (%) (human 5-HT2C receptor; [3]) | SMILES | Emax (human 5-HT2C receptor; read-out: 5-HT2C Function Emax (%), percentage of the response observed with a maximally effective concentration of 5-HT) [%]
15 | 2 | 100 | 127 | – | COc1ccccc1-c1cccc2c1OC(CN)C2 (racemic) [Example 59, (±)-1-[7-(2-methoxyphenyl)-2,3-dihydro-1-benzofuran-2-yl]methanamine] | –
16 | 1.2 | – | 473 | 90 | NCC1Cc2cccc(-c3ccc(C(F)(F)F)cc3)c2O1 (single isomer, unassigned; (+)) [Example 137, (+)-1-{7-[4-(trifluoromethyl)phenyl]-2,3-dihydro-1-benzofuran-2-yl}methanamine] | –
17 | 1 | – | 4 | 95 | Cc1ccccc1-c1cc(F)cc2c1OC(CN)C2 (single isomer, unassigned; (+)) [Example 105, (+)-1-[5-fluoro-7-(2-methylphenyl)-2,3-dihydro-1-benzofuran-2-yl]methanamine] | –
18 | 1 | 90 | 49 | – | Cc1ccccc1-c1cc(C(C)C)cc2c1OC(CN)C2 (racemic) [Example 307, (±)-{[5-isopropyl-7-(2-methylphenyl)-2,3-dihydro-1-benzofuran-2-yl]methyl}amine] | –
19 | 1 | 100 | 1 | – | NCC1Cc2cccc(-c3ccccc3)c2O1 (single isomer, unassigned; (+)) [Example 37] | –
20 | 0.9 | 85 | 62 | – | COc1cc2c(c(-c3ccc(F)cc3F)c1)OC(CN)C2 (racemic) [Example 364, (±)-{[7-(2,4-difluorophenyl)-5-methoxy-2,3-dihydro-1-benzofuran-2-yl]methyl}amine] | –
21 | 0.58 | 100 | 0.64 | – | CCc1cc2c(c(-c3ccccc3Cl)c1)OC(CN)C2 (racemic) [Example 306, (±)-{[5-ethyl-7-(2-chlorophenyl)-2,3-dihydro-1-benzofuran-2-yl]methyl}amine] | –
22 | 0.57 | 80 | 3 | – | CN(C)CC1Cc2cc(F)cc(-c3c(Cl)cccc3Cl)c2O1 (racemic) [Example 237, (±)-{[7-(2,6-dichlorophenyl)-5-fluoro-2,3-dihydro-1-benzofuran-2-yl]methyl}dimethylamine] | –
23 | 0.5 | 80 | 71 | – | CNCC1Cc2cc(C)cc(-c3cccc(Cl)c3)c2O1 (racemic) [Example 479, (±)-{[7-(3-chlorophenyl)-5-methyl-2,3-dihydro-1-benzofuran-2-yl]methyl}methylamine] | –
24 | 0.4 | 100 | 22 | – | Cc1cc2c(c(-c3ccc(F)cc3)c1)OC(CN)C2 (racemic) [Example 291, (±)-{[7-(4-fluorophenyl)-5-methyl-2,3-dihydro-1-benzofuran-2-yl]methyl}amine] | –
25 | 0.31 | – | 137 | 80 | CNCC1Cc2cc(F)cc(-c3cc(Cl)ccc3Cl)c2O1 (single isomer, unassigned; (-)) [Example 451, (−)-{[5-fluoro-7-(2,5-dichlorophenyl)-2,3-dihydro-1-benzofuran-2-yl]methyl}methylamine] | –
26 | 0.2 | 100 | 120 | – | NCC1Cc2cc(F)cc(-c3ccccc3Cl)c2O1 (racemic) [Example 100, (±)-1-[7-(2-chlorophenyl)-5-fluoro-2,3-dihydro-1-benzofuran-2-yl]methanamine] | –
